Measured values from patent publication US20080019910A1, “Cancer Treatment and Cancer Treatment Efficacy Prediction by Blocking and Detecting Protease Inhibitors” (priority 2004, published 2008).

Assays:
[1] = test system: wild-type and PAI-1 gene-deficient fibrosarcoma cell lines; test: Clonogenic assay (colony formation in soft agar); type: cell-based, mouse; settings: PAI-1−/− versus wild type fibrosarcoma cells
Protocol: The cell lines described in Example 1 were used. The cells were in passage 35 (wild-type cells) and passage 50 (PAI-1 gene deficient cells). […] Gentle aspiration was repeated using a 1 ml syringe to achieve single cell suspension. 1 ml was then plated in triplicate in Petri dishes upon a feeder layer of SRBC (see separate paragraph for preparation of these). When the agar had solidified, 1 ml of media was added on top. 18-24 dishes were placed on plastic trays and two Petri dishes containing water were placed on each tray for conditioning. […] Colonies (>64 cells) were counted after 3 weeks. The experimental drugs were dissolved in media×300 the final concentration. […] Viable cells were counted after 8 minutes.

[2] = test system: PAI-1+/+ fibrosarcoma cells; test: LDH release cytotoxicity assay; type: cell-based, mouse; settings: PAI-1+/+ cells
Text: (§1) The damage of the plasma membrane is classically evaluated as a parameter for cell death. In vivo the plasma membrane of apoptotic cells persists until the cell is phagocytised. In contrast, necrotic cell death results in leakage of cytoplasm to the extracellular environment, which leads to an inflammatory response. Under cell culture conditions, cells that have been subjected to an apoptotic stimulus will initially die by apoptosis, but later shift into secondary necrosis due to lack of phagocytosis in the cell culture. Cytotoxicity or cell lysis can be measured by determining the release of lactate dehydrogenase (LDH) in the culture supernatant. For this purpose the “Cytotoxicity detection kit” (Roche, Mannheim, Germany) was employed.
(§2) PAI-1−/− and PAI-1+/+ fibrosarcoma cells were seeded in a 96-well microtiter plate (2500 cells/well). Fifty μl of culture supernatant (total: 200 μl) is transferred to a new 96-well microtiter plate and mixed with 50 μl of a substrate mix. The remaining supernatant is discarded, and the remaining intact cells are lysed by addition of 200 μl of lysis buffer (1% Triton-X100 in CM). After 30 min lysis at 37° C., 50 μl of lysate is transferred to a new 96-well microtiter plate and mixed with 50 μl of a substrate mix. The cell culture supernatant and lysate are incubated for 10 min with the substrate mix protected from light. The absorbance is measured on a spectrophotometer at λ1=490 nm and reference λ2=650 nm. The amount of released LDH in % is related to total amount: [formula] Results

[3] = test system: PAI-1−/− fibrosarcoma cells; test: LDH release cytotoxicity assay; type: cell-based, mouse; settings: for LDH release (% of total activity): PAI-1−/− cells; for sensitivity to treatment (LDH release): PAI-1−/− compared with PAI-1+/+ fibrosarcoma cells; for cell lysis (LDH release): both PAI-1−/− and PAI-1+/+ fibrosarcoma cells
Text: as §1, §2

[4] = test system: TIMP-1−/− and TIMP-1+/+ fibrosarcoma cells; test: LDH release cytotoxicity assay; type: cell-based, mouse
Text: as §1
TIMP-1−/− and TIMP-1+/+ fibrosarcoma cells (see above method for establishment of fibrosarcoma cells from mice) were seeded in a 96-well microtiter plate (2500 cells/well). After 24 hours, cells are treated with etoposide for 24 h. Fifty μl of culture supernatant (total: 200 μl) is transferred to a new 96-well microtiter plate and mixed with 50 μl of a substrate mix. The remaining supernatant is discarded, and the remaining intact cells are lysed by addition of 200 μl of lysis buffer (1% Triton-X100 in CM). […] The absorbance is measured on a spectrophotometer at λ1=490 nm and reference λ2=650 nm. […]

[5] = test system: PAI-1 transfected PAI-1−/− fibrosarcoma cells; test: LDH release after reintroduction of PAI-1 expression; type: cell-based, mouse; settings: PAI-1−/−(PAI-1 pool) versus PAI-1−/− (vector pool) and parental PAI-1−/− cells
Protocol: Transfection of PAI-1−/− fibrosarcoma cells was performed by the use of Lipofectamine 2000 ([…]) according to the manufactures instructions employing 2×10^5 cells. After 2 days the cells were seed in tissue culture flasks and 100 μg/ml Hygromycin was added to the medium to select for transfected cells in pooled population. Experiments were performed 2 months after transfection. The sensitivity to apoptosis was measured by treating the cells with etoposide and TNF-α and detecting the LDH release as described in Example 4.

[6] = test system: TIMP-1 +/+ and TIMP-1 −/− fibrosarcoma cell lines; test: DNA-histone complex assay; type: cell-based, mouse
[7] = In vivo toxicity (weight loss, white blood cells) in PAI-1 +/+ and PAI-1 −/− mice; settings: 75 mg/kg i.p.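 Also: nude META/Bom nu/nu mice of both sexes, 24-30 g, blood taken for hematology on day 3 (anticipated WBC nadir) and on day 5 after dosing.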
Protocol: We investigated the sensitivity of the intact mouse by a “comparison” of sensitivity between the PAI-I +/+ and −/− mice in terms of weight loss.
Furthermore blood was sampled on the day of expected nadir (day 3 (WBC)) and day 5, with hematological evaluation.
Mice: META™/Bom nu/nu; PAI-1+/+ and PAI-1 −/−. Size (gram): 24-30 grams females and males.
The drug was administered i.p., freshly made, relative to body weight, in a NaCl solvent (Batch 3036111) according to the following table:

Molecule: Nc1ccn([C@@H]2O[C@H](CO)[C@@H](O)[C@@H]2O)c(=O)n1 [ARA-C]
- sensitivity in clonogenic assay (colony formation) [1]: significantly more sensitive

Molecule: N.N.[Cl][Pt][Cl] [cisplatin]
- sensitivity in clonogenic assay (colony formation) [1]: significantly more sensitive

Molecule: COc1cccc2c1C(=O)c1c(O)c3c(c(O)c1C2=O)C[C@@](O)(C(=O)CO)C[C@@H]3O[C@H]1C[C@H](N)[C@H](O)[C@H](C)O1 [doxorubicin]
- sensitivity in clonogenic assay (colony formation) [1]: significantly more sensitive

Molecule: COc1cc([C@@H]2c3cc4c(cc3[C@@H](O[C@@H]3O[C@@H]5CO[C@@H](C)O[C@H]5[C@H](O)[C@H]3O)[C@H]3COC(=O)[C@H]23)OCO4)cc(OC)c1O [etoposide]
- sensitivity in clonogenic assay (colony formation) [1]: significantly more sensitive
- LDH release (% of total activity) ([2]; 1.25 μM etoposide, 48 h): 1%
- LDH release (% of total activity) ([3]; 1.25 μM etoposide, 48 h): 41.10%
- sensitivity to treatment (LDH release) [3]: significantly more sensitive
- cell lysis (LDH release) [3]: dose-dependent cell lysis
- sensitivity to treatment (LDH release) ([4]; TIMP-1−/− compared with TIMP-1+/+ fibrosarcoma cells): significantly more sensitive
- cell lysis (LDH release) ([4]; both TIMP-1−/− and TIMP-1+/+ fibrosarcoma cells): dose-dependent cell lysis
- resistance to induced cell death (LDH release) [5]: significantly more resistant
- apoptosis induction [6]: induced apoptosis
- day of WBC nadir ([7]; both genotypes): 3 days
- effect on white blood cell count (WBC) ([7]; both genotypes, p=0.0003): suppresses white blood cell count
- difference in WBC response between PAI-1 +/+ and PAI-1 −/− mice ([7]; p=0.99): no difference
- weight loss in treated mice ([7]; treated versus untreated, p<0.0001): significant loss of weight
- Drug induced effect on weight loss (weight, initial = 100) ([7]; PAI-1 +/+ female mice, 22.0 hours): 101.2
- Drug induced effect on weight loss (weight, initial = 100) ([7]; PAI-1 +/+ female mice, 44.5 hours): 98.3
- Drug induced effect on weight loss (weight, initial = 100) ([7]; PAI-1 +/+ female mice, 67.0 hours): 98.2
- Drug induced effect on weight loss (weight, initial = 100) ([7]; PAI-1 +/+ female mice, 93.5 hours): 98.4
- Drug induced effect on weight loss (weight, initial = 100) ([7]; PAI-1 +/+ female mice, 120.0 hours): 97.7
- Drug induced effect on weight loss (weight, initial = 100) ([7]; PAI-1 +/+ male mice, 22.0 hours): 97.6
- Drug induced effect on weight loss (weight, initial = 100) ([7]; PAI-1 +/+ male mice, 44.5 hours): 94.9
- Drug induced effect on weight loss (weight, initial = 100) ([7]; PAI-1 +/+ male mice, 67.0 hours): 92.9
- Drug induced effect on weight loss (weight, initial = 100) ([7]; PAI-1 +/+ male mice, 93.5 hours): 91.0
- Drug induced effect on weight loss (weight, initial = 100) ([7]; PAI-1 +/+ male mice, 120.0 hours): 91.8
- Drug induced effect on weight loss (weight, initial = 100) ([7]; PAI-1 −/− female mice, 22.0 hours): 99.9
- Drug induced effect on weight loss (weight, initial = 100) ([7]; PAI-1 −/− female mice, 44.5 hours): 99.1
- Drug induced effect on weight loss (weight, initial = 100) ([7]; PAI-1 −/− female mice, 67.0 hours): 99.6
- Drug induced effect on weight loss (weight, initial = 100) ([7]; PAI-1 −/− female mice, 93.5 hours): 98.7
- Drug induced effect on weight loss (weight, initial = 100) ([7]; PAI-1 −/− female mice, 120.0 hours): 100.3
- Drug induced effect on weight loss (weight, initial = 100) ([7]; PAI-1 −/− male mice, 22.0 hours): 99.1
- Drug induced effect on weight loss (weight, initial = 100) ([7]; PAI-1 −/− male mice, 44.5 hours): 96.3
- Drug induced effect on weight loss (weight, initial = 100) ([7]; PAI-1 −/− male mice, 67.0 hours): 96.4
- Drug induced effect on weight loss (weight, initial = 100) ([7]; PAI-1 −/− male mice, 93.5 hours): 95.6
- Drug induced effect on weight loss (weight, initial = 100) ([7]; PAI-1 −/− male mice, 120.0 hours): 97.0

Molecule: CC[C@]1(O)C[C@H]2CN(CCc3c([nH]c4ccccc34)[C@@](C(=O)OC)(c3cc4c(cc3OC)N(C=O)[C@H]3[C@@](O)(C(=O)OC)[C@H](OC(C)=O)[C@]5(CC)C=CCN6CC[C@]43[C@@H]65)C2)C1 [vincristine]
- sensitivity in clonogenic assay (colony formation) [1]: significantly more sensitive

Molecule: TNF-α
- LDH release (% of total activity) ([2]; 2.5 ng/ml TNF-α, 24 h): 7.3%
- LDH release (% of total activity) ([3]; 2.5 ng/ml TNF-α, 24 h): 46.3%
- sensitivity to treatment (LDH release) [3]: significantly more sensitive
- cell lysis (LDH release) [3]: dose-dependent cell lysis
- resistance to induced cell death (LDH release) [5]: significantly more resistant
